Numbering of substitutions follows the chain as printed.
How the values were obtained:
[1] = biological target: T1, FKBP51 WT (FK1 domain) (Homo sapiens, UniProt Q13451); experiment: Fluorescence polarization tracer binding, FKBP51 WT; conditions: for Fold change in Kd improvement: FKBP51 WT (reference); for Kd: FKBP51 WT, 0.5 nM SAFit-FL, 5 nM Mcyc-TA or 1 nM FK [431]-TA, 30 min room temperature, 3 independent experiments
T1 construct: made in house; host or cells: E. coli BL21 (DE3)
T1 sequence (Q13451 1-140): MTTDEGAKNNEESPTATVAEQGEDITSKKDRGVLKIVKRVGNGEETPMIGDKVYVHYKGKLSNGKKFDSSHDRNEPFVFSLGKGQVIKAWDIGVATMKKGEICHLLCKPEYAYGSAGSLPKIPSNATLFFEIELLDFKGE
Excerpt: (§1) All ligands and tracers used for fluorescence polarization assays had purities of more than 95%. The following ligands and tracers were used for fluorescence polarization and FACS screening experiments: •SAFit-FL tracer (1): Fluorescein conjugated analog of the iFit ligand class. •Mcyc-TA tracer (2): TAMRA conjugated macrocyclic ligand (5). •FK [431]-TA tracer (3): TAMRA conjugated FK [431] ligand (6). •SAFit1 ligand (4): analog of the iFit ligand class. •macrocyclic ligand (5):macrocyclic analog of the SAFit class ligands. •FK [431] ligand (6):bicyclic analog of the immunosuppressive drug FK506
(§2) The binding of the generated FKBP51 variants to different conformation-sensitive FKBP ligands was investigated by fluorescence polarization assays. Therefore, a serial dilution of the respective FKBP51 variant in assay buffer (20 mM HEPES pH 8.0, 150 mM NaCl, 0.015% Triton X-100) was placed in a 384-well assay plate and a defined amount of the respective fluorescent tracer (0.5 nM of the SAFit based tracer SAFit-FL (1), 5 nM of the macrocyclic tracer Mcyc-TA 2) or 1 nM of the FK [431]-TA 3) in assay buffer was added to the protein buffer mixture. After incubation for 30 min at room temperature, the fluorescence polarization was measured with a plate reader. The obtained results for each 3 independent experiments were normalized with respect to the maximal binding signal and fitted to a one-site binding model as described by [Wang et al., 1992] yielding the respective binding constants. tracer bound=100/Lt×0.5×(Rt+Lt+KD−(Rt+Lt+KD)^2−4×LtRt) With L t , total concentration of the tracer, R t , total concentration of the receptor and K D binding constant of the complex RL.

[2] = biological target: T2, FKBP51 variant N63A (Homo sapiens, UniProt Q13451, N63A); experiment: Fluorescence polarization tracer binding, FKBP51 N63A; conditions: for Fold change in Kd improvement: FKBP51 N63A compared to WT; for Kd: FKBP51 N63A, 0.5 nM SAFit-FL, 5 nM Mcyc-TA or 1 nM FK [431]-TA, 30 min room temperature
T2 construct: made in house; host or cells: E. coli BL21 (DE3)
T2 sequence (Q13451 1-140 N63A): T1 sequence (Q13451 1-140) with N63A
Excerpt: as §1, §2

[3] = biological target: T3, FKBP51 variant N63G (Homo sapiens, UniProt Q13451, N63G); experiment: Fluorescence polarization tracer binding, FKBP51 N63G; conditions: for Fold change in Kd improvement: FKBP51 N63G compared to WT; for Kd: FKBP51 N63G, 0.5 nM SAFit-FL, 5 nM Mcyc-TA or 1 nM FK [431]-TA, 30 min room temperature
T3 construct: made in house; host or cells: E. coli BL21 (DE3)
T3 sequence (Q13451 1-140 N63G): T1 sequence (Q13451 1-140) with N63G
Excerpt: as §1, §2

[4] = biological target: T4, FKBP51 variant G64R (Homo sapiens, UniProt Q13451, G64R); experiment: Fluorescence polarization tracer binding, FKBP51 G64R; conditions: for Fold change in Kd improvement: FKBP51 G64R compared to WT; for Kd: FKBP51 G64R, 0.5 nM SAFit-FL, 5 nM Mcyc-TA or 1 nM FK [431]-TA, 30 min room temperature
T4 construct: made in house; host or cells: E. coli BL21 (DE3)
T4 sequence (Q13451 1-140 G64R): T1 sequence (Q13451 1-140) with G64R
Excerpt: as §1, §2

[5] = biological target: T5, FKBP51 variant G64K (Homo sapiens, UniProt Q13451, G64K); experiment: Fluorescence polarization tracer binding, FKBP51 G64K; conditions: for Fold change in Kd improvement: FKBP51 G64K compared to WT; for Kd: FKBP51 G64K, 0.5 nM SAFit-FL, 5 nM Mcyc-TA or 1 nM FK [431]-TA, 30 min room temperature
T5 construct: made in house; host or cells: E. coli BL21 (DE3)
T5 sequence (Q13451 1-140 G64K): T1 sequence (Q13451 1-140) with G64K
Excerpt: as §1, §2

[6] = biological target: T6, FKBP51 variant G64T (Homo sapiens, UniProt Q13451, G64T); experiment: Fluorescence polarization tracer binding, FKBP51 G64T; conditions: for Fold change in Kd improvement: FKBP51 G64T compared to WT; for Kd: FKBP51 G64T, 0.5 nM SAFit-FL, 5 nM Mcyc-TA or 1 nM FK [431]-TA, 30 min room temperature
T6 construct: made in house; host or cells: E. coli BL21 (DE3)
T6 sequence (Q13451 1-140 G64T): T1 sequence (Q13451 1-140) with G64T
Excerpt: as §1, §2

[7] = biological target: T7, FKBP51 variant F67E (Homo sapiens, UniProt Q13451, F67E); experiment: Fluorescence polarization tracer binding, FKBP51 F67E; conditions: for Kd: FKBP51 F67E, 0.5 nM SAFit-FL, 5 nM Mcyc-TA or 1 nM FK [431]-TA, 30 min room temperature
T7 construct: made in house; host or cells: E. coli BL21 (DE3)
T7 sequence (Q13451 1-140 F67E): T1 sequence (Q13451 1-140) with F67E
Excerpt: as §1, §2

[8] = biological target: T8, FKBP51 variant F67W (Homo sapiens, UniProt Q13451, F67W); experiment: Fluorescence polarization tracer binding, FKBP51 F67W; conditions: for Fold change in Kd improvement: FKBP51 F67W compared to WT
T8 construct: made in house; host or cells: E. coli BL21 (DE3)
T8 sequence (Q13451 1-140 F67W): T1 sequence (Q13451 1-140) with F67W
Excerpt: as §1, §2

[9] = biological target: T9, FKBP51 variant S69Y (Homo sapiens, UniProt Q13451, S69Y); experiment: Fluorescence polarization tracer binding, FKBP51 S69Y; conditions: for Fold change in Kd improvement: FKBP51 S69Y compared to WT; for Kd: FKBP51 S69Y, 0.5 nM SAFit-FL, 5 nM Mcyc-TA or 1 nM FK [431]-TA, 30 min room temperature
T9 construct: made in house; host or cells: E. coli BL21 (DE3)
T9 sequence (Q13451 1-140 S69Y): T1 sequence (Q13451 1-140) with S69Y
Excerpt: as §1, §2

Kd ([8]; FKBP51 F67W, 0.5 nM SAFit-FL, 5 nM Mcyc-TA or 1 nM FK [431]-TA, 30 min room temperature) [µM]	Compound	Fold change in Kd improvement [1] [fold]	Kd [1] [µM]	Fold change in Kd improvement [2] [fold]	Kd [2] [µM]	Fold change in Kd improvement [3] [fold]	Kd [3] [µM]	Fold change in Kd improvement [4] [fold]	Kd [4] [µM]	Fold change in Kd improvement [5] [fold]	Kd [5] [µM]	Fold change in Kd improvement [6] [fold]	Kd [6] [µM]	Fold change in Kd improvement ([7]; FKBP51 F67E compared to WT) [fold]	Kd [7] [µM]	Fold change in Kd improvement [8] [fold]	Fold change in Kd improvement [9] [fold]	Kd [9] [µM]
	CN(C)c1ccc2c(-c3cc(C(=O)NCCn4cc([C@H]5CN(Cc6ccccn6)C(=O)[C@@H]6CCC[C@H]5N6S(=O)(=O)c5cc(Cl)cc(Cl)c5)nn4)ccc3C(=O)O)c3ccc(=[N+](C)C)cc-3oc2c1 [FK [431]-TA]	1	0.0051 ± 0.0001	0.850	0.006 ± 0.0002	0.850	0.006 ± 0.0002	0.159	0.032 ± 0.002	0.283	0.018 ± 0.001	0.084	0.061 ± 0.002	0.004	1.33 ± 0.066	0.004	0.077	0.066 ± 0.002
0.016 ± 0.001	COc1ccc(CC[C@H]2OC(=O)[C@@H]3CCCCN3C(=O)[C@@H](C3CCCCC3)NC(=O)C(C)(C)NC(=O)COc3cc(OCCNC(=O)c4ccc(C(=O)O)c(-c5c6ccc(=[N+](C)C)cc-6oc6cc(N(C)C)ccc56)c4)cc2c3)cc1OC [Mcyc-TA]	1.00	0.024 ± 0.002	5.58	0.0043 ± 0.0005	3.16	0.0076 ± 0.0009	2.42	0.0099 ± 0.001	6.86	0.0035 ± 0.0005	1.41	0.017 ± 0.001		0.005 ± 0.0005	1.50	1.41	0.017 ± 0.001
